Experimental findings from PMC1790865, “Plant Carbohydrate Scavenging through TonB-Dependent Receptors: A Feature Shared by Phytopathogenic and Aquatic Bacteria” (PLoS ONE, 2007) are described below.

The target in experiment [1] is T1, SuxA (XCC3358 TonB-dependent receptor) (Xanthomonas campestris, UniProt Q8P5I3).
T1 construct: gene fyuA
The experiment in a line: […]sucrose concentration-dependent uptake in whole wild-type cells (Scatchard, high-affinity phase); uptake lost in suxA deletion mutant and restored by complementation. Format: cell-based.

Experiment [2] addresses T2, SuxC (XCC3357 inner membrane sugar transporter) (Xanthomonas campestris, UniProt Q8P5I4).
T2 construct: gene suc1
Kind of experiment: […]sucrose concentration-dependent uptake in whole wild-type cells (Scatchard, slow phase); uptake lost in suxC insertion mutant. Format: cell-based.

T2 sequence (Q8P5I4 entry or part of it): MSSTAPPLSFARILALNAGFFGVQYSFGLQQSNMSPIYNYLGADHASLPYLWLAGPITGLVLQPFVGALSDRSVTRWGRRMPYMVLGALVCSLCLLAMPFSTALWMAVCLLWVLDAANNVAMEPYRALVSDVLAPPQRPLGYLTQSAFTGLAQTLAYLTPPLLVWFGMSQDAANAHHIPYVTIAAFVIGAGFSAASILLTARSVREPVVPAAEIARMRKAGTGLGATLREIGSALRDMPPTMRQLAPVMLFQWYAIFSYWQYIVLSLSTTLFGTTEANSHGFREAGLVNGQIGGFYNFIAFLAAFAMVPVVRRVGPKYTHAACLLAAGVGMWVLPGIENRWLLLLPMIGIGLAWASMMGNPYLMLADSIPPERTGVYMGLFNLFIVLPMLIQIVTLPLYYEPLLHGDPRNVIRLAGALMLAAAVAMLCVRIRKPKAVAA
T1 sequence (Q8P5I3 entry or part of it): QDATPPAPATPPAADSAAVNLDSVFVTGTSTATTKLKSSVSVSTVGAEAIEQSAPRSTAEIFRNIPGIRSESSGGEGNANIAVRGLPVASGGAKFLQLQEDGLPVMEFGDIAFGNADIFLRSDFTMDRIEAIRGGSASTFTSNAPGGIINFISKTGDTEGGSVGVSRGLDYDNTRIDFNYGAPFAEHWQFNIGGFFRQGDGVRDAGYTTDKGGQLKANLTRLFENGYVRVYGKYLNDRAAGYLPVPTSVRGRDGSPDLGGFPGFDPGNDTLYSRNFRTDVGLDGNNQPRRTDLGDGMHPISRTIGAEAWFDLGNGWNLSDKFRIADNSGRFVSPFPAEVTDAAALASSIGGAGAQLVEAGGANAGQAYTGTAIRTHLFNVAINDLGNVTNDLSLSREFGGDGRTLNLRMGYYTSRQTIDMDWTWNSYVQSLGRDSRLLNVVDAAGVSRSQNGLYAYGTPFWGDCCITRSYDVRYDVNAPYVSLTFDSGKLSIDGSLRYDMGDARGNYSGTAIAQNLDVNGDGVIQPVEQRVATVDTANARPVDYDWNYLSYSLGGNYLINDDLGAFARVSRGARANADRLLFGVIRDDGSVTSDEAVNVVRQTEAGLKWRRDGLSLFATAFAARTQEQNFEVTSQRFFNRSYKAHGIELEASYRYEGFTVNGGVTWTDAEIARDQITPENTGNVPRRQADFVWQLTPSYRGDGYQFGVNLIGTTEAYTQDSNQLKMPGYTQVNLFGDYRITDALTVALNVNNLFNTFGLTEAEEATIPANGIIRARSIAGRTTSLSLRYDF

Regarding `OC[C@H]1O[C@@](CO)(O[C@H]2O[C@H](CO)[C@@H](O)[C@H](O)[C@H]2O)[C@@H](O)[C@@H]1O` [sucrose], the Kd in experiment [1] came out at 0.033 µM; in experiment [2] it was 0.59 µM.

One may read the Kd as the free concentration of one partner at which half of the binding sites on the other are occupied at equilibrium, for simple one-to-one binding. Lower therefore signals a tighter complex.
